Biological target: GluA1o-γ8 (Homo sapiens (Human), UniProt P42261+Q8WXS5)
Assay: Calcium flux assay (FLIPR), inhibition of TARP γ8 dependent AMPA receptor activity
Assay type: cell-based
Conditions: HEK293 cells stably expressing GRIA1o-CACNG8 fusion construct; calcium flux following 15 μM glutamate; negative log of IC50 in molar
Text: This assay was used to test compounds for their ability to inhibit TARP γ8 dependent AMPA receptor activity. The AMPA receptor is a non-selective cation channel activated by glutamate. Ionotropic glutamate receptors normally desensitize too rapidly to allow detectable calcium influx in a FLIPR assay (Strange et al. (2006). “Functional characterisation of homomeric ionotropic glutamate receptors GluR1-GluR6 in a fluorescence-based high throughput screening assay.” Comb Chem High Throughput Screen 9(2): 147-158). But, this desensitization is incomplete, and a substantial steady-state current remains in the sustained presence of glutamate (Cho et al. (2007). “Two families of TARP isoforms that have distinct effects on the kinetic properties of AMPA receptors and synaptic currents.” Neuron 55(6): 890-904).
An in vitro assay was used to determine the potency of test compounds as inhibitors of the glutamate response of the channel formed by GluA1o-γ8. To ensure a 1:1 stoichiometry of GluA1o and γ8 subunits in the expressed channel, a fusion of the cDNAs for GRIA1o and CACNG8 was used. Following Shi et al (2009) “The stoichiometry of AMPA receptors and TARPs varies by neuronal cell type.” Neuron 62(5): 633-640), the C-terminus of the cDNA for GRIA1o was fused to the N-terminus of the cDNA for γ8. The linker sequence was QQQQQQQQQQEFAT. Channels expressed with this construct appear to have similar properties to channels formed by co-expression of GRIA1o with an excess of CACNG8 (Shi et al. 2009). A clonal cell line in HEK293 cells stably expressing this construct, with a geneticin selection marker, was generated for use in this assay.
Cell expressing the GRIA1o-CACNG8 fusion construct were grown in a monolayer in 96- or 384-well microtiter plates. They were washed with assay buffer (135 mM NaCl, 4 mM KCl, 3 mM CaCl2, 1 mM MgCl2, 5 mM glucose, 10 mM HEPES, pH 7.4, 300 mOs) using a Biotek EL405 plate washer. The cells were then loaded with a calcium-sensitive dye (Calcium-5 or Calcium-6, Molecular Devices) and the test compounds at a range of concentrations. Calcium flux following the addition of 15 μM glutamate was monitored using a Molecular Devices FLIPR Tetra.
The fluorescence in each well was normalized to the fluorescence of negative and positive control wells. The negative control wells had no added compounds, and the positive control wells had been incubated with 10 μM CP465022 (a non-subtype-selective AMPA receptor antagonist) (Lazzaro et al. (2002). “Functional characterization of CP-465,022, a selective, noncompetitive AMPA receptor antagonist.” Neuropharmacology 42(2): 143-153). The responses to glutamate as functions of the test compound concentrations were fitted to a four-parameter logistic function. The fitted parameter corresponding to the midpoint was taken to be the potency of inhibition of the compound. The data in Table 4 below illustrates the observed potency for the compounds described herein. pIC50 refers to the negative log of the IC50 in molar.

Sequence of GluA1o-γ8 (P42261 other isoform, or with tags, fused parts or gaps): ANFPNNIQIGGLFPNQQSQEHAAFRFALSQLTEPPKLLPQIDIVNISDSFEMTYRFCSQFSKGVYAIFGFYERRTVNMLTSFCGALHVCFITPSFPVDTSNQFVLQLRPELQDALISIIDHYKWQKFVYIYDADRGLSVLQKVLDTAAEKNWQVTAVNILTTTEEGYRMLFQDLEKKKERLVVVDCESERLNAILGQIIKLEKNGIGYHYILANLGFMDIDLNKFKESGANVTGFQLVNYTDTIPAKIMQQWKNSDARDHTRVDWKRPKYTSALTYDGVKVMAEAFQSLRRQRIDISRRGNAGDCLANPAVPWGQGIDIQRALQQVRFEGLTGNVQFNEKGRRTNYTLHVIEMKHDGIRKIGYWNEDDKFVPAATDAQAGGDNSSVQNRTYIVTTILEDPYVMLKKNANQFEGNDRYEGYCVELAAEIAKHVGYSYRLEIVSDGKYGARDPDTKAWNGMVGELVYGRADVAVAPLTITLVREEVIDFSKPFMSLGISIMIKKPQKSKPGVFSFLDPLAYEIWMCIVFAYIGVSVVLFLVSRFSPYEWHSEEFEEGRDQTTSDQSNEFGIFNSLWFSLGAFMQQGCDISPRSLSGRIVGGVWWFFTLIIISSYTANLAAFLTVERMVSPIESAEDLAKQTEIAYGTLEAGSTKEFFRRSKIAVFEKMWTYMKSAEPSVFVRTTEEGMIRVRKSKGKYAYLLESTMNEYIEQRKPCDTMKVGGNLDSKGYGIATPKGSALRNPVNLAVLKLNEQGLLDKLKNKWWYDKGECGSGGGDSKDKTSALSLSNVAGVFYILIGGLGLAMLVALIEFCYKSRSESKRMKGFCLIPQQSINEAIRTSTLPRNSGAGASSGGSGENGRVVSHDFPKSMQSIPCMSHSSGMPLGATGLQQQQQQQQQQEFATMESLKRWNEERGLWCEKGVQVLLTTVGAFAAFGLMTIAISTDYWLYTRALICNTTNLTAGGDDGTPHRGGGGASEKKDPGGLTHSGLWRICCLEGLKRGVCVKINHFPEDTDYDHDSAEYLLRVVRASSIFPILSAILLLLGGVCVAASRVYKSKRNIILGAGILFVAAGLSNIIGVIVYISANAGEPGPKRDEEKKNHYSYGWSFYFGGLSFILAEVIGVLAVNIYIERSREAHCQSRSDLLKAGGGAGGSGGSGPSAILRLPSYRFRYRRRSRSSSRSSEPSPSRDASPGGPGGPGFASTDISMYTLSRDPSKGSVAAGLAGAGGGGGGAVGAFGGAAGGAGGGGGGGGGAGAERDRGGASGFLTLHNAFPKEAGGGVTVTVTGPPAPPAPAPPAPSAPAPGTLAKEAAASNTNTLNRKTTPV

Structure (SMILES)	pIC50
Cc1cc(-c2c(-c3ccc(F)cc3)ccn3nc(C(F)F)nc23)cc2cn[nH]c12 [Example 46, 2-(Difluoromethyl)-7-(4-fluorophenyl)-8-(7-methyl-1H-indazol-5-yl)-[1,2,4]triazolo[1,5-a]pyridine]	10.5
Cc1ccn2nc(C(F)(F)F)nc2c1-c1cc(C)c2[nH]ncc2c1 [Example 27, 7-Methyl-8-(7-methyl-1H-indazol-5-yl)-2-(trifluoromethyl)-[1,2,4]triazolo[1,5-a]pyridine]	8.4
Cc1cc(-c2c(C(F)(F)F)ccn3cc(C4CC4)nc23)cc2cn[nH]c12 [Example 91, 2-Cyclopropyl-8-(7-methyl-1H-indazol-5-yl)-7-(trifluoromethyl)imidazo[1,2-a]pyridine]	9.6
Cc1ccn2cc(-c3ccccc3)nc2c1-c1cc(C)c2[nH]ncc2c1 [Example 56, 7-Methyl-8-(7-methyl-1H-indazol-5-yl)-2-phenyl-imidazo[1,2-a]pyridine]	7.9
Cc1nc(C2CC2)c(-c2cc(Cl)c3[nH]ncc3c2)c2nc(C(F)(F)F)cn12 [Example 79]	8.9
Cc1cc(-c2c(Cl)ccn3cc(C(F)(F)F)nc23)cc2cn[nH]c12 [Example 60, 7-Chloro-8-(7-methyl-1H-indazol-5-yl)-2-(trifluoromethyl)imidazo[1,2-a]pyridine]	9.0
FC(F)c1ccn2nc(C(F)(F)F)nc2c1-c1cc(Cl)c2[nH]ncc2c1 [Example 23, 8-(7-Chloro-1H-indazol-5-yl)-7-(difluoromethyl)-2-(trifluoromethyl)-[1,2,4]triazolo[1,5-a]pyridine]	9.4
O=c1[nH]c2ccc(-c3c(-c4ccc(F)cc4)ccn4nc(C(F)(F)F)nc34)cc2s1 [Example 5, 6-(7-(4-Fluorophenyl)-2-(trifluoromethyl)-[1,2,4]triazolo[1,5-a]pyridin-8-yl)benzo[d]thiazol-2(3H)-one]	9.6
Cc1ccn2cc(C(C)(C)C)nc2c1-c1cc(C)c2[nH]ncc2c1 [Example 53, 2-tert-Butyl-7-methyl-8-(7-methyl-1H-indazol-5-yl)imidazo[1,2-a]pyridine]	7.5
Cc1cc(-c2c(C(F)(F)F)ccn3cc(C(F)F)nc23)cc2cn[nH]c12 [Example 93, 2-(Difluoromethyl)-8-(7-methyl-1H-indazol-5-yl)-7-(trifluoromethyl)imidazo[1,2-a]pyridine]	9.3
FC(F)(F)c1nc2c(-c3cc(Cl)c4[nH]ncc4c3)c(Cl)ccn2n1 [Example 41, 7-Chloro-8-(7-chloro-1H-indazol-5-yl)-2-(trifluoromethyl)-[1,2,4]triazolo[1,5-a]pyridine]	9.0
Cc1cc(-c2c(C)ccn3cc(-c4ccccc4)nc23)cc2c1NC(=O)C2 [Example 55, 7-Methyl-5-(7-methyl-2-phenyl-imidazo[1,2-a]pyridin-8-yl)indolin-2-one]	7.4
CC(C)c1ncn2cc(C(F)(F)F)nc2c1-c1cc(Cl)c2[nH]ncc2c1 [Example 71, 8-(7-Chloro-1H-indazol-5-yl)-7-isopropyl-2-(trifluoromethyl)imidazo[1,2-c]pyrimidine]	9.8
Cc1cc(-c2c(C(F)F)ccn3nc(C(F)(F)F)nc23)cc2cn[nH]c12 [Example 24, 8-(7-Methyl-1H-indazol-5-yl)-7-(difluoromethyl)-2-(trifluoromethyl)-[1,2,4]triazolo[1,5-a]pyridine]	9.2
O=C1Cc2cc(-c3c(C(F)(F)F)ccn4cc(C(F)(F)F)nc34)cc(Cl)c2N1 [Example 86, 5-(2,7-Bis(trifluoromethyl)imidazo[1,2-a]pyridin-8-yl)-7-chloroindolin-2-one]	9.8
O=C1Cc2cc(-c3c(C(F)(F)F)ccn4nc(C(F)F)nc34)cc(Cl)c2N1 [Example 17, 7-Chloro-5-(2-(difluoromethyl)-7-(trifluoromethyl)-[1,2,4]triazolo[1,5-a]pyridin-8-yl)indolin-2-one]	8.9

Structure (SMILES)	pIC50
CCc1nc2c(-c3cc(C)c4c(c3)CC(=O)N4)c(C(F)(F)F)ccn2n1 [Example 36, 5-[2-Ethyl-7-(trifluoromethyl)-[1,2,4]triazolo[1,5-a]pyridin-8-yl]-7-methyl-indolin-2-one]	8.7
CC(C)c1cn2ccc(C(F)(F)F)c(-c3cc(Cl)c4[nH]ncc4c3)c2n1 [Example 89, 8-(7-Chloro-1H-indazol-5-yl)-2-isopropyl-7-(trifluoromethyl)imidazo[1,2-a]pyridine]	10.6
CCc1nc2c(-c3cc(Cl)c4[nH]ncc4c3)c(C(F)(F)F)ccn2n1 [Example 34, 8-(7-Chloro-1H-indazol-5-yl)-2-ethyl-7-(trifluoromethyl)-[1,2,4]triazolo[1,5-a]pyridine]	9.4
Cc1cc(-c2c(C(F)(F)F)ncn3cc(C(F)(F)F)nc23)cc2cn[nH]c12 [Example 63, 8-(7-Methyl-1H-indazol-5-yl)-2,7-bis(trifluoromethyl)imidazo[1,2-c]pyrimidine]	8.9
O=c1[nH]c2ccc(-c3c(C(F)(F)F)ccn4nc(C(F)(F)F)nc34)cc2s1 [Example 3, 6-(2,7-Bis(trifluoromethyl)-[1,2,4]triazolo[1,5-a]pyridin-8-yl)benzo[d]thiazol-2(3H)-one]	8.1
O=C1Cc2cc(-c3c(C(F)(F)F)ncn4cc(C5CC5)nc34)cc(Cl)c2N1 [Example 69, 7-Chloro-5-[2-cyclopropyl-7-(trifluoromethyl)imidazo[1,2-c]pyrimidin-8-yl]indolin-2-one]	9.5
COc1ccn2cc(C(F)(F)F)nc2c1-c1cc(C)c2c(c1)CC(=O)N2 [Example 58, 5-[7-Methoxy-2-(trifluoromethyl)imidazo[1,2-a]pyridin-8-yl]-7-methyl-indolin-2-one]	7.8
CC(C)c1ncn2cc(C(F)F)nc2c1-c1cc(Cl)c2[nH]ncc2c1 [Example 72, 8-(7-Chloro-1H-indazol-5-yl)-2-(difluoromethyl)-7-isopropyl-imidazo[1,2-c]pyrimidine]	9.5
CCc1cn2ccc(C(F)(F)F)c(-c3cc(C)c4[nH]ncc4c3)c2n1 [Example 92, 2-Ethyl-8-(7-methyl-1H-indazol-5-yl)-7-(trifluoromethyl)imidazo[1,2-a]pyridine]	9.4
Cc1cc(-c2c(C(F)(F)F)ncn3cc(C4CC4)nc23)cc2cn[nH]c12 [Example 68, 2-Cyclopropyl-8-(7-methyl-1H-indazol-5-yl)-7-(trifluoromethyl)imidazo[1,2-c]pyrimidine]	9.6
Cc1ncn2cc(C(F)(F)F)nc2c1-c1cc(Cl)c2[nH]ncc2c1 [Example 76, 8-(7-Chloro-1H-indazol-5-yl)-7-methyl-2-(trifluoromethyl)imidazo[1,2-c]pyrimidine]	8.5
Cc1ccn2cc(C(F)(F)F)nc2c1-c1cc(C)c2[nH]ncc2c1 [Example 52, 7-Methyl-8-(7-methyl-1H-indazol-5-yl)-2-(trifluoromethyl)imidazo[1,2-a]pyridine]	8.0
Cc1cc(-c2c(C(F)(F)F)ccn3nc(C(F)(F)F)nc23)cc2cn[nH]c12 [Example 20, 8-(7-Methyl-1H-indazol-5-yl)-2,7-bis(trifluoromethyl)-[1,2,4]triazolo[1,5-a]pyridine]	9.3
Fc1c(C2CC2)nc2c(-c3cc(Cl)c4[nH]ncc4c3)c(C(F)(F)F)ncn12 [Example 82, 8-(7-Chloro-1H-indazol-5-yl)-2-cyclopropyl-3-fluoro-7-(trifluoromethyl)imidazo[1,2-c]pyrimidine]	9.5
O=C1Cc2cc(-c3c(C(F)(F)F)ncn4cc(C5CC5)nc34)cc(F)c2N1 [Example 70, 5-[2-Cyclopropyl-7-(trifluoromethyl)imidazo[1,2-c]pyrimidin-8-yl]-7-fluoro-indolin-2-one]	5.3
Cc1cc(-c2c(C(F)F)ccn3nc(C(F)(F)F)nc23)cc2c1NC(=O)C2 [Example 26, 7-Methyl-5-(7-(difluoromethyl)-2-(trifluoromethyl)-[1,2,4]triazolo[1,5-a]pyridin-8-yl)indolin-2-one]	9.0

Reference: patent publication US10155769B2, “Fused azaheterocyclic compounds and their use as AMPA receptor modulators” (Janssen Pharmaceutica NV, priority 2016, dated 2018)
